The values below come from US12390440B2, “Immunomodulating trifluoromethyl-aminal azalides” (Zoetis Services LLC, priority 2020, dated 2025).

Usually IC50 stands for the point on the concentration scale where inhibition reaches its midpoint. A word on the EC50: it is the concentration giving half of the maximal effect. The MIC50 is the lowest concentration that inhibits either 50% of growth or 50% of the strains tested, depending on the study. A lower MIC50 goes with greater potency. Usually MIC90 stands for the lowest concentration that inhibits either 90% of growth or 90% of the strains tested, depending on the study.

SMILES strings stand for the structures. Values after ≈ are worked out from the molar mass of the structure shown. “Also recorded” adds a separate entry of the source.

One data set has as its system IL-1β. The experiment in a line: Bovine whole blood assay, IL-1β.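 Note: compound concentration at which rising IL-1β release signals cytotoxicity.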 Format: cell-based. As to conditions: overstimulation of IL-1β, perceived cellular toxicity concentration. The method, then: (§1) (protected from light) for 30 minutes.
The test system of a further data set is IL-6. Nature of the data set: Bovine whole blood assay, IL-6. In kind it is cell-based. Conditions: Bos taurus, fresh whole bovine blood, LPS 1 μg/mL. The method, then:
as §1

The subject of data set [1] is bovine alveolar macrophages. The experiment in a line: Phospholipidosis assay (HCS LipidTox). Format: cell-based. As to conditions: Bos taurus, Macrophage. The text has this:
The second immunomodulation in vitro assay evaluated the potential for phospholipidosis with the compounds of the invention in bovine alveolar macrophages. The phospholipidosis assay is being used as a convenient method for the evaluation of cellular uptake. This assay utilized Invitrogen's commercially available HCS LipidTox detection kit with an Incucyte real time fluorescence reader to observe variations in EC50 and phospholipidosis profiles based on compound concentrations (Table 2). […] Murine intraperitoneal macrophages were also used in the same assay to evaluate species variability for potential correlation with mouse efficacy results. The combination of the bovine whole blood assay and phospholipidosis assays enabled rank ordering for progression into in vivo testing in the murine challenge model.

A further data set relates to P. multocida. The experiment in a line: Murine P. multocida intranasal challenge study, survival. In kind it is in vivo. Conditions: 32 mg/kg (T03) subcutaneous 18 hours after challenge, 5×10^3 CFU/mouse. On the procedure:
In one murine P. multocida intranasal challenge study, mice were administered tulathromycin (16 mg/kg; T02), M9 (32 mg/kg; T03), or ceftiofur (9 mg/kg; T04) by subcutaneous injection 18 hours after bacterial challenge (5×10^3 CFU/mouse) for lung tissue RNA sequence analysis. Survival at Day 7 was about 80%, 50%, and 90% for T02, T03, and T04, respectively, compared to placebo at 0%. Differential gene expression from total lung tissue RNA sequence analysis indicated at least 226 unique genes were up or down regulated (with significance) for T03. Output from ingenuity pathway analysis of these unique genes predicted major upstream regulators of the involved pathways. Data was analyzed based on the number of genes being modulated in the same direction that were associated with a given upstream regulator. An activation z-score of 2 or greater is considered significant and the direction change is indicated by + (activated) or − (inhibited). The top 5 pathways included: IL-9 signaling, glucocorticoid receptor signaling, prolactin signaling, JAK STAT signaling, and IL-17 signaling. The top 6 upstream regulators (activation z-score) included: lipopolysaccharide (−6.725), TNF (−4.669), IFNγ (−5.759), IL-1ß (−5.947), STAT1 (−2.787), and poly rI:rC-RNA (−5.289). Even though this study was run in the murine model, the top upstream regulators identified as being modulated by M9 include an almost ubiquitous overlap with the pathways identified in the natural disease study as being key mediators in BRD, and therefore is modulating highly relevant pathways in BRD pathobiology.

Data set [2] deals with bovine respiratory disease (BRD). The experiment in a line: Natural bovine respiratory disease study. In kind it is in vivo, beef calves. As to conditions: 14-day observation, dosed on arrival to feedlot.
Description: The primary clinical endpoint for efficacy was treatment failure/success over a 14-day observation period. Clinically normal beef calves (150-200 kg) at moderate risk for BRD were dosed on arrival to the feedlot. Animals (N=114/group) received saline (T01), 5 mg/kg M9 (T02) or 10 mg/kg M9 (T03); or Zactran (T04). […] Bacterial isolates were collected at necropsy and MICs were evaluated (Table 4).
The next data set addresses T1, TLR4 (Bos taurus, UniProt Q9GL65).
T1 sequence (Q9GL65 24-841): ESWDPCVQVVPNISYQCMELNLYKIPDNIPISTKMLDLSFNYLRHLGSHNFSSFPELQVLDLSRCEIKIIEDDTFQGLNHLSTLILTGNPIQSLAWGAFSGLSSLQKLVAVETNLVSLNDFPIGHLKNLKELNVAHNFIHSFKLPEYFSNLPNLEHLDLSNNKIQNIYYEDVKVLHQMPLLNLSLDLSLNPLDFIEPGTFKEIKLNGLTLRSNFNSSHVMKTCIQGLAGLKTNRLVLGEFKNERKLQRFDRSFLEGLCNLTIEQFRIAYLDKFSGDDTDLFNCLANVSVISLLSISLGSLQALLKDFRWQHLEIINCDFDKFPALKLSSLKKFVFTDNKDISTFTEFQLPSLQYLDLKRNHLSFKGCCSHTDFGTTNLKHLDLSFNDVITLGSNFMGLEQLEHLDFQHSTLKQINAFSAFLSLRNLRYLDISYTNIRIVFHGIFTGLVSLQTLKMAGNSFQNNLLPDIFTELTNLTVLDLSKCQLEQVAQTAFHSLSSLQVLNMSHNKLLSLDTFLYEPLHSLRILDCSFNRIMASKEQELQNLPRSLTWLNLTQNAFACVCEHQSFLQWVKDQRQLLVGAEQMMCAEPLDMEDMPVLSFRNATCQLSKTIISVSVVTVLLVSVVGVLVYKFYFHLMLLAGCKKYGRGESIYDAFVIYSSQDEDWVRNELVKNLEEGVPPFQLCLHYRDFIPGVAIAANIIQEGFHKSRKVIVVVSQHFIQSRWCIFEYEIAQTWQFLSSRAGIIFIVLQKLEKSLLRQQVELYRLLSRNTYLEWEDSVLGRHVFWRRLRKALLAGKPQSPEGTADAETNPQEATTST
Nature of the data set: Drug/protein binding partner, SPR: TLR4. On the set-up: species or system bovine. As to conditions: PBMCs, Trachea. On the procedure: To further characterize the direct activity of the compounds of the invention, experiments to identify the drug's direct binding host partners(s) were performed with the aim of identifying the potential biological targets. Bovine primary cells (peripheral blood mononuclear cells [PBMCs] and polymorphonuclear cells [PMN/neutrophils]) and tissue (trachea, lung) protein homogenates were mixed with M9 and the macrolide, gamithromicin as a comparator. Tissue interactions were allowed to form using a heterogeneous assembly method (nematic protein organization technique, NPOT; Inoviem Scientific); and traditional western blots to identify native-structure proteins bound to the compound. Mass spectrometry analysis identified eight proteins involved in the interaction with M9 as compared to gamithromycin. The antibacterial macrolide gamithromycin was used as a comparator to differentiate specific binding to M9. These proteins were considered to be either direct binding partners of the drug or closely involved in the drug:target interaction (Table 6).
In order to add further clarity to binding partner identification, surface plasma resonance (SPR) technology was used. […]
KD is the equilibrium dissociation constant that was used to present the drug/target affinity. The identified targets associated with drug were measured by surface plasmon resonance (SPR) to define the KD.

A further data set concerns H. somni. The experiment in a line: MIC, H. somni.
Data set [3] has as its system M. haemolytica (strain: OSU-012103-BHI). Nature of the data set: Bovine M. haemolytica intratracheal lung challenge model.

Take `CCCNC[C@]1(O)[C@H](C)O[C@@H](O[C@H]2[C@H](C)[C@@H](O[C@@H]3O[C@H](C)C[C@H](NC)[C@H]3O)[C@](C)(O)C[C@@H](C)CN[C@H](C)[C@@H](O)[C@](C)(O)[C@@H](CC)OC(=O)[C@@H]2C)C[C@@]1(C)OC` [Example M9, (2R,3S,4R,5R,8R,10R,11R,12S,13S,14R)-2-ethyl-3,4,10-trihydroxy-13-(((2R,4R,5S,6S)-5-hydroxy-4-methoxy-4,6-dimethyl-5-((propylamino)methyl)-tetrahydro-2H-pyran-2-yl)oxy)-11-(((2S,3R,4S,6R)-3-hydroxy-6-methyl-4-(methylamino)tetrahydro-2H-pyran-2-yl)oxy)-3,5,8,10,12,14-hexamethyl-1-oxa-6-azacyclopentadecan-15-one]: in the data set on IL-1β, the “IL-1β OS of LPS” value was more than 500 µM. In the data set on IL-6, this compound showed an IC50 of more than 250 µM. In data set [1], the EC50 worked out at 53.7 µM. For the same compound, the “Survival at Day 7” value in the data set on P. multocida is recorded as approximately 50%. For the same compound, the values for the Percent failure in data set [2] (5 mg/kg (T02)) and in data set [2] (10 mg/kg (T03)) were 19.3% and 8.8%, respectively. Besides, the “Interaction KD” value on TLR4 is “Indirect”. This compound also showed an MIC50 in the data set on H. somni of 32 µg/mL (≈ 40.4 µM). In the data set with H. somni, the MIC90 worked out at 32 µg/mL (≈ 40.4 µM). Further, the Mortality in data set [3] (T02: 10 mg/kg subcutaneous Day −1, M. haemolytica challenge Day 0) is 1/6; in data set [3] (T04: 10 mg/kg subcutaneous Day −1, no challenge) it was 0/6. In addition, in data set [3] (bovine M. haemolytica challenge), the IL-6 levels entry is recorded as “significantly reduced”. Besides, the CD163 expression result in data set [3] (cattle, monocytes/macrophages in whole blood) is “suppressed; also recorded: mitigates the pathologic increase”.
